Measurements published in paper PMC13070491, “Single-nucleus transcriptomics, pharmacokinetics, and pharmacodynamics of CDK4/6 and mTOR inhibition in a Phase 0/1 trial of recurrent high-grade glioma” (Neuro-Oncology, 2025).

Test system: GB126, GB239 and GB86 patient-derived cell lines
Test: In vitro single-cell RNA sequencing, analyses across the cell lines (pseudobulk differential gene expression, GSEA, non-cycling cells)
Format: cell-based, human
Procedure: Patient-derived glioma stem cell lines (GSCs; GB126, GB86, and GB239) were established from resected GBM tumor tissue. Cell lines were genetically profiled for mutations and copy number aberrations using the IvySeq custom gene panel. […] GB239 was derived from a tumor sample included in this Phase 0 trial (tumor sample: 100-0039). All human GSCs were cultured as described previously.[12]
Following the fifth day of drug exposure, cells were harvested, cryopreserved to be processed at a later point, or immediately processed for single-cell RNA sequencing (10x Genomics, 3’ version 3). The single-cell RNA sequencing data were then processed via cellranger count and Seurat. Briefly, cells were filtered out based on the following criteria: minimum number of genes detected >500 and <10 000 with a maximum percentage of mitochondrial genes set to 10%. Statistical assessment was made between the malignant proportions of each cell state using a 2-sided paired t-test.
Descriptive statistics of the clinical data are included in Table 1. Comparisons between groups were conducted using a 2-sided or paired 2-sided t-test, where indicated. P < .05 was considered significant. Multiple hypothesis test corrections (ie, false discovery rate correction) were applied for snRNAseq pseudobulk differential expression analysis.

## CN(C)C(=O)c1cc2cnc(Nc3ccc(N4CCNCC4)cn3)nc2n1C1CCCC1 [Ribociclib, ribociclib]
5 days vs DMSO, single-cell RNAseq
  CDK4 gene expression following ribociclib treatment: reduced but remained high
Ribociclib vs DMSO 5 days, paired t-test P = 1.4E-06
  NPC-like proportion, cells not actively cycling: decrease
Ribociclib vs DMSO 5 days, paired t-test P = 2.6E-03
  AC-like proportion, cells not actively cycling: increase
